From patent publication US8691281B2, “Solid pharmaceutical composition containing 6-oxo-6,7,8,9,10,11-hexahydrocyclohepta (C)chromen-3-yl sulfamate and polymorphs thereof” (Ipsen Pharma S.A.S., priority 2009, dated 2014)

Experiments:
Format in all cases: physicochemical
[1] = Biopharmaceutical Classification System (BCS) class
From the text: Compound 1 belongs to Class 2 of the Biopharmaceutical Classification System or BCS proposed by G. Amidon (cf. G. L. Amidon et al., “A theoretical basis for a biopharmaceutical drug classification: the correlation of in vitro drug dissolution and in vivo bioavailability”, Pharm. Res. 12 (1995) 413-420). Its absorption, and therefore its bioavailability, thus strongly depend on the dissolution rate of the pharmaceutical form administered.

[2] = Particle size distribution (Malvern Mastersizer S laser granulometer)
Protocol: • Wavelength: 1.54056 Cu, voltage 40 KV, intensity 40 mA • Measurement range: 3°-30°2 theta • Interval: 0.04°2 theta • Duration of the interval: 4s • Fixed slots: 1.6 mm • Kβ filter (Ni) • Without internal reference • EVA software (v 12.0) for data processing Smart Apex Bruker diffractometer, two-dimensional detector • SMART software for determination of the parameters and orientation of the crystal matrix • SAINT software for data integration and processing • WinGX software for determination of the space group and the structural resolution 6.1.2 DSC • Netzsch DSC 204F1 • Aluminium crucible and pierced lid • Atmosphere: Helium • Initial temperature: 20° C. • Final temperature: 200° C. • Temperature gradient: 5° C.·min^−1 6.1.3 IR • KBr pellet • Bruker IFS28 type spectrometer • Spectral range: 400-4000 cm^−1 6.1.4 NMR of the solid • Bruker Avance 500 MHz spectrometer • MAS (Magic Angle Spinning) 4 mm probe • Bruker XwinNMR software • VACP (Variable Amplitude Cross-Polarization) with MAS (11 kHz) and proton decoupling (spinal 64, 65 kHz) • External reference: Adamantane 6.1.5 Particle Size Distribution • Malvern Mastersizer S laser granulometer • Size of the sample: 30 to 50 mg • Dispersion medium: 0.50% (m/v) Nonidet in water • Mie theory with as refractive indices: particle RI=1.55; imaginary RI=1.00; dispersant RI=1.38 • Sonication time: 60 seconds • Sonication energy: 50 to 60 Hz • Recirculation time: 30 seconds at 2000 rpm^−1 • Obscuration: 15-25% 6.2 Characterization of the Examples 6.2.1 Examples 5 and 5b

[3] = Conversion experiments between the polymorphic forms; conditions: after heating, return to ambient temperature
Protocol: The applicant has carried out conversion experiments between the different polymorphic forms of compound 1 which have shown that form III is the form which is stable at a high temperature (T>145° C.). This significant property makes it possible, by heating under vacuum, to eliminate traces of solvent (Polymorphism in the Pharmaceutical Industry, Wiley 2006, Ed Hilfiker; Wiley, ISBN: 978-3-527-31146-0).

[4] = Chemical stability at 150° C. by HPLC
Protocol: A stability study was carried out at 150° C. between compound 1 of form III and the compound 1 described in patent EP 880514. This chemical stability of compound 1 is studied using HPLC
(§1) The operating conditions of the HPLC method are the following: • column: Interchim UP3HDO-15XS, 150×4.6 mm,
(§2) • detection: 205 nm, • injection: 20 microliters, • temperature: 40° C., • solution injected: 0.5 mg·mL^−1 (acetonitrile)

[5] = Chemical stability at 100° C. by HPLC
Protocol: A stability study was carried out at 100° C. between variety I of compound 1 and the compound 1 described in patent EP 880514. The chemical stability of compound 1 is studied using HPLC with different scores.
as §1, §2

| SMILES | particle size distribution D10(%) [2] [μm] | particle size distribution D50(%) [2] [μm] | particle size distribution D90(%) [2] [μm] | HPLC Purity ([5]; T0) [%] | HPLC Purity ([5]; T1 day at 100° C.) [%] | HPLC Purity ([5]; T2 days at 100° C.) [%] | HPLC Purity ([5]; T3 days at 100° C.) [%] | HPLC Purity ([5]; T7 days at 100° C.) [%] | further results |
| --- | --- | --- | --- | --- | --- | --- | --- | --- | --- |
| NS(=O)(=O)Oc1ccc2c3c(c(=O)oc2c1)CCCCC3 [Compound 1, 6-oxo-6,7,8,9,10,11-hexahydrocyclohepta[c]chromen-3-yl sulphamate] | – | – | – | – | – | – | – | – | Biopharmaceutical Classification System (BCS) class [1]: Class 2 |
| NS(=O)(=O)Oc1ccc2c3c(c(=O)oc2c1)CCCCC3 [Example 3] | 0.6 | 3.1 | 13.7 | – | – | – | – | – | – |
| NS(=O)(=O)Oc1ccc2c3c(c(=O)oc2c1)CCCCC3 [form III, 6-oxo-6,7,8,9,10,11-hexahydrocyclohepta[c]chromen-3-yl sulphamate] | – | – | – | – | – | – | – | – | behaviour of the form on returning to ambient temperature [3]: remains unchanged; HPLC Purity ([4]; T0 (start of stability study at 150° C.), listed as Compound 1 of form III): 99.4%; HPLC Purity ([4]; T2 hours at 150° C., listed as Compound 1 of form III): 41.2% |
| NS(=O)(=O)Oc1ccc2c3c(c(=O)oc2c1)CCCCC3 [Compound 1 Patent EP 880514, 6-oxo-6,7,8,9,10,11-hexahydrocyclohepta[c]chromen-3-yl sulphamate, reference compound] | – | – | – | 99.6 | 99.1 | 98.8 | 98.7 | 98.0 | HPLC Purity ([4]; T0 (start of stability study at 150° C.)): 99.6%; HPLC Purity ([4]; T2 hours at 150° C.): 7.3% |
| NS(=O)(=O)Oc1ccc2c3c(c(=O)oc2c1)CCCCC3 [Example 2-2] | 1.2 | 5.2 | 11.0 | – | – | – | – | – | – |
| NS(=O)(=O)Oc1ccc2c3c(c(=O)oc2c1)CCCCC3 [Variety I of compound 1, 6-oxo-6,7,8,9,10,11-hexahydrocyclohepta[c]chromen-3-yl sulphamate] | – | – | – | 99.6 | 99.6 | 99.7 | 99.7 | 99.7 | – |
